Measurements published in US4804656A, “Novel androstane-17β-carboxylic acid esters” (Aktiebolaget Draco, priority 1985, dated 1989).

Target: T1, glucocorticoid receptor (Rattus norvegicus, UniProt P06536)
T1 construct: The thymus was removed and put into ice-cold saline; The tissue was homogenized in a Potter Elvehjem homogenizer; from tissue; host or cells: thymus of male Sprague-Dawley rats, 20,000×g supernatant of homogenate
T1 sequence (P06536 1-795): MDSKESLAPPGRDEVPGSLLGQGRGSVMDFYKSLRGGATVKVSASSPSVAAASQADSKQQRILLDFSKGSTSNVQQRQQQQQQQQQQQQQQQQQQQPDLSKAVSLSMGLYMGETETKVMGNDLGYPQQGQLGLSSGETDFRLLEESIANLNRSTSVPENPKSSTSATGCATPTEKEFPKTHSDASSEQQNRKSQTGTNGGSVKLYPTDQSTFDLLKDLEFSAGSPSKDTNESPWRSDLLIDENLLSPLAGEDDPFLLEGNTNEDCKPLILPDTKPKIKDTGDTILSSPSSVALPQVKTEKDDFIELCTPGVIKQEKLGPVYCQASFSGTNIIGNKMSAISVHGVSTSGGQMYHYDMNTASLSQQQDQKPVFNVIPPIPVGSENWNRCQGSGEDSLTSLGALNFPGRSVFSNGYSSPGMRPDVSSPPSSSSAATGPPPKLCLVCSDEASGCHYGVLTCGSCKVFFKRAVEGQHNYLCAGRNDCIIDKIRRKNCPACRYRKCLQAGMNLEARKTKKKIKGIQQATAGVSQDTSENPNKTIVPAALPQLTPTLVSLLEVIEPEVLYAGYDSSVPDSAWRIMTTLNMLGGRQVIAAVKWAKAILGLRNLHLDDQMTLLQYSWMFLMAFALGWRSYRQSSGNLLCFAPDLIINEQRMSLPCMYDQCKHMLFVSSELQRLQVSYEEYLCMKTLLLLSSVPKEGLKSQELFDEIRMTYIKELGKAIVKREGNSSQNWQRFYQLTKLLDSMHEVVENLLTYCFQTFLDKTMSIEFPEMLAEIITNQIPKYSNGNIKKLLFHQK
Assay: Affinity to the glucocorticoid receptor: competition with 3H-labelled dexamethasone in rat thymus 20,000×g supernatant
Settings: curves compared at the 50% specific binding level, referenced to budesonide = 1, 3 nM 3H-dexamethasone, about 24 h at 0° C.
Method: All steroids according to the present invention are physiologically active compounds. The affinity of the novel androstane-17β-carboxylic acid esters to the glucocorticoid receptor has been used as a model for determination of the anti-inflammatory potency.
Male Sprague-Dawley rats, one to two months of age, were used throughout the investigation. The thymus was removed and put into ice-cold saline. The tissue was homogenized in a Potter Elvehjem homogenizer in 10 ml of a buffer containing 20 mM Tris, pH 7.4, 10% (w/v) glycerol, 1 mM EDTA, 20 mM NaMoO4, 10 mM mercaptoethanol. The homogenate was centrifuged for 15 min at 20,000×g. Portions of the 20,000×g supernatant (230 μl) were incubated for about 24 h at 0° C. with 100 μl phenylmethylsulphonylfluoride (an esterase inhibitor, final conc. 0.5 mM), 20 μl unlabelled competitor and 50 μl ^3 H-labelled dexamethasone (final conc. 3 nM). Bound and free steroid were separated by incubating the mixture with 60 μl 2.5% (w/v) charcoal and 0.25% (w/v) dextran T70 suspension in […], pH 7.4, 1 mM EDTA, and […] for 10 min at 0° C. Following a centrifugation at 500×g for 10 min, 230 μl of the supernatant was counted in 10 ml Insta-Gel in a Packard scintillation spectrophotometer. The supernatants were incubated with a) [^3 H]dexamethasone alone, b) [^3 H] dexamethasone plus 1000 fold excess of unlabelled dexamethasone and c) [^3 H] dexamethasone plus 0.03-300 fold "excess" competitor. The nonspecific binding was determined when 1000 fold excess of unlabelled dexamethasone was added to [^3 H]-labelled dexamethasone.
The radioactivity bound to the receptor in the presence of competitor divided by the radioactivity bound to the receptor in the absence of competitor multiplied by 100 gives the percentage specific binding of labelled dexamethasone. For each concentration of a competitor the percentage specifically bound radioactivity is plotted against the log of concentration of competitor. The curves are compared at the 50% specific binding level and reference to budesonide, which is assigned a relative binding affinity (RBA) of 1.

With `CCC(=O)O[C@]1(C(=O)OC(C)OC(=O)OCc2ccc([N+](=O)[O-])cc2)[C@@H](C)C[C@H]2[C@@H]3CCC4=CC(=O)C=C[C@]4(C)[C@@]3(F)[C@@H](O)C[C@@]21C` (single isomer, unassigned) [Example 19b] as the compound, how does the “RBA (relative binding affinity)” value read?
The value was 0.53.

Which “RBA (relative binding affinity)” value does the source give for `CCC(=O)O[C@]1(C(=O)OC(C)OC(=O)OCC(C)C)[C@@H](C)C[C@H]2[C@@H]3CCC4=CC(=O)C=C[C@]4(C)[C@@]3(F)[C@@H](O)C[C@@]21C` (stereo partly shown) [Example 10b] here?
Its value is 0.82.

How did the “RBA (relative binding affinity)” value turn out when `CCCCC(=O)O[C@]1(C(=O)OC(C)OC(=O)N(CC)CC)[C@@H](C)C[C@H]2[C@@H]3CCC4=CC(=O)C=C[C@]4(C)[C@@]3(F)[C@@H](O)C[C@@]21C` (single isomer, unassigned) [3 (epimer B), 1'-diethylcarbamoyloxyethyl 9αfluoro-11β-hydroxy-16β-methyl-3-oxo-17α-valeroyloxyandrosta-1,4-diene-17β-carboxylate] was run?
The value was 0.47.

`CCC(=O)O[C@]1(C(=O)OC(C)OC(=O)OC(C)C)[C@@H](C)C[C@H]2[C@@H]3CCC4=CC(=O)C=C[C@]4(C)[C@@]3(F)[C@@H](O)C[C@@]21C` (stereo partly shown) [Example 8b] was tested. Which “RBA (relative binding affinity)” value did it give?
Its value is 1.50.

`CCC(=O)O[C@]1(C(=O)OC(C)OC(=O)NC(C)C)[C@@H](C)C[C@H]2[C@@H]3CCC4=CC(=O)C=C[C@]4(C)[C@@]3(F)[C@@H](O)C[C@@]21C` (single isomer, unassigned) [2 (epimer B), 1'-isopropylcarbamoyloxyethyl 9α-fluoro-11β-hydroxy-16β-methyl-3-oxo-17α-propionyloxyandrosta-1,4-diene-17β-carboxylate] was tested. Which “RBA (relative binding affinity)” value did it give?
Its value is 0.14.

With `CCOC(=O)OC(C)OC(=O)[C@@]1(OC(=O)CC)[C@@H](C)C[C@H]2[C@@H]3CCC4=CC(=O)C=C[C@]4(C)[C@@]3(F)[C@@H](O)C[C@@]21C` (single isomer, unassigned) [1 (epimer B), 1'-ethoxycarbonyloxyethyl 9α-fluoro-11β-hydroxy-16β-methyl-3-oxo-17α-propionyloxyandrosta-1,4-diene-17β-carboxylate] as the compound, how does the “RBA (relative binding affinity)” value read?
The value was 0.80.

`CCC(=O)O[C@]1(C(=O)OC(C)OC(=O)OC2CCC2)[C@@H](C)C[C@H]2[C@@H]3CCC4=CC(=O)C=C[C@]4(C)[C@@]3(F)[C@@H](O)C[C@@]21C` (stereo partly shown) [Example 13b] was tested. Which “RBA (relative binding affinity)” value did it give?
Its value is 1.3.

For `CCOC(=O)OC(C)OC(=O)[C@@]1(OC(=O)CC)[C@H](C)C[C@H]2[C@@H]3C[C@H](F)C4=CC(=O)C=C[C@]4(C)[C@@]3(F)[C@@H](O)C[C@@]21C` (single isomer, unassigned) [Example 26b], which “RBA (relative binding affinity)” value is on record?
Its value is 0.45.

For `CCOC(=O)OC(C)OC(=O)[C@@]1(OC(=O)CC)[C@H](C)C[C@H]2[C@@H]3CCC4=CC(=O)C=C[C@]4(C)[C@@]3(F)[C@@H](O)C[C@@]21C` (stereo partly shown) [Example 24b], which “RBA (relative binding affinity)” value is on record?
Its value is 0.55.

Which “RBA (relative binding affinity)” value does the source give for `CCC(=O)O[C@]1(C(=O)OC(C)OC(=O)OC)[C@@H](C)C[C@H]2[C@@H]3CCC4=CC(=O)C=C[C@]4(C)[C@@]3(F)[C@@H](O)C[C@@]21C` (stereo partly shown) [Example 6b] here?
The value was 0.42.

Which “RBA (relative binding affinity)” value does the source give for `C=C(C)COC(=O)OC(C)OC(=O)[C@@]1(OC(=O)CC)[C@@H](C)C[C@H]2[C@@H]3CCC4=CC(=O)C=C[C@]4(C)[C@@]3(F)[C@@H](O)C[C@@]21C` (stereo partly shown) [Example 16b] here?
The value was 0.51.

For `CCOC(=O)OC(C)OC(=O)[C@@]1(OC(=O)CC)[C@@H](C)C[C@H]2[C@@H]3CCC4=CC(=O)C=C[C@]4(C)[C@@]3(Cl)[C@@H](O)C[C@@]21C` (stereo partly shown) [Example 28b], which “RBA (relative binding affinity)” value is on record?
Its value is 1.0.

Which “RBA (relative binding affinity)” value does the source give for `C=CCOC(=O)OC(C)OC(=O)[C@@]1(OC(=O)CC)[C@@H](C)C[C@H]2[C@@H]3CCC4=CC(=O)C=C[C@]4(C)[C@@]3(F)[C@@H](O)C[C@@]21C` (stereo partly shown) [Example 9b] here?
The value was 0.39.

With `CCCCC(=O)O[C@]1(C(=O)OC(C)OC(=O)OC(C)C)[C@@H](C)C[C@H]2[C@@H]3CCC4=CC(=O)C=C[C@]4(C)[C@@]3(F)[C@@H](O)C[C@@]21C` (stereo partly shown) [Example 22b] as the compound, how does the “RBA (relative binding affinity)” value read?
Its value is 0.77.

Which “RBA (relative binding affinity)” value does the source give for `CCC(=O)O[C@]1(C(=O)OC(C)OC(=O)OC2CCCC2)[C@@H](C)C[C@H]2[C@@H]3CCC4=CC(=O)C=C[C@]4(C)[C@@]3(F)[C@@H](O)C[C@@]21C` (stereo partly shown) [Example 14b] here?
Its value is 1.2.

With `CCC(=O)O[C@]1(C(=O)OC(C)OC(C)=O)[C@@H](C)C[C@H]2[C@@H]3CCC4=CC(=O)C=C[C@]4(C)[C@@]3(F)[C@@H](O)C[C@@]21C` (single isomer, unassigned) [4 (epimer B), 1'-acetyloxyethyl 9α-fluoro-11β-hydroxy-16β-methyl-3-oxo-17α-propionyloxyandrosta-1,4-diene-17β-carboxylate] as the compound, how does the “RBA (relative binding affinity)” value read?
The value was 0.69.

How did the “RBA (relative binding affinity)” value turn out when `CCC(=O)O[C@]1(C(=O)OC(C)OC(=O)OCC2CC2)[C@@H](C)C[C@H]2[C@@H]3CCC4=CC(=O)C=C[C@]4(C)[C@@]3(Cl)[C@@H](O)C[C@@]21C` (stereo partly shown) [Example 32b] was run?
Its value is 0.86.

Which “RBA (relative binding affinity)” value does the source give for `CCCOC(=O)OC(C)OC(=O)[C@@]1(OC(=O)CC)[C@@H](C)C[C@H]2[C@@H]3CCC4=CC(=O)C=C[C@]4(C)[C@@]3(F)[C@@H](O)C[C@@]21C` (stereo partly shown) [Example 7b] here?
Its value is 0.95.

How did the “RBA (relative binding affinity)” value turn out when `CCC(=O)O[C@]1(C(=O)OC(C)OC(=O)OC2CCCCC2)[C@@H](C)C[C@H]2[C@@H]3CCC4=CC(=O)C=C[C@]4(C)[C@@]3(F)[C@@H](O)C[C@@]21C` (stereo partly shown) [Example 15b] was run?
Its value is 0.54.
